Reference: patent US10323037B2, “Aminopyridazinone compounds as protein kinase inhibitors” (Jiangsu Hengrui Medicine Co., Ltd., priority 2014, dated 2019)

tested on: TMD-8 cells; test: Cell proliferation assay (CellTiter-Glo), TMD-8; format: cell-based; conditions: Homo sapiens, TMD8, 120 h; 5-day treatment; read-out: TMD8 cells growth IC50
Description: Cell proliferation assay: TMD-8 and SU-DHL-1 cells were maintained at 37° C. in a humidified atmosphere with 5% CO2 in the recommended medium and serum concentrations. For cell proliferation assay, cells were seeded in 96-well pates at a density of 5,000 to 10,000 cells per well and cultured overnight at 37° C. in recommended medium supplemented with 5-10% FBS. On the next day, the test articles at various concentrations or vehicle control (0.5% DMSO) were added into cell culture. After 5-day treatment, the growth of cells was assayed by the CellTiter-Glo® Luminestceaent Cell Viability Assay (Promega). IC50 values were calculated using GraphPad Prism by plotting the logarithm of the concentration versus percent inhibition of cell growth as compared with the vehicle control.

SMILES | IC50 [nM]
C=CC(=O)N1CCC[C@@H](n2cc(-c3ccc(Oc4ccccc4Cl)cc3)c3c(N)n[nH]c(=O)c32)C1 [Example 70, (R)-1-(1-acryloylpiperidin-3-yl)-4-amino-3-(4-(2-chlorophenoxy)phenyl)-1H-pyrrolo[2,3-d]pyridazin-7(6H)-one] | ≤ 10
CN(C)C/C=C/C(=O)N1CCC[C@H]1Cn1cc(-c2ccc(Oc3ccccc3)cc2)c2c(N)n[nH]c(=O)c21 [Example 41, 4-amino-1-[[(2S)-1-[(E)-4-(dimethylamino)but-2-enoyl]pyrrolidin-2-yl]methyl]-3-(4-phenoxyphenyl)-6H-pyrrolo[2,3-d]pyridazin-7-one] | 10 to 1000
CN(C)C/C=C/C(=O)N1C[C@H](n2cc(-c3ccc(Oc4ccccc4)cc3)c3c(N)n[nH]c(=O)c32)CC(F)(F)C1 [Example 49, 4-amino-1-[(3R)-1-[(E)-4-(dimethylamino)but-2-enoyl]-5,5-difluoro-3-piperidyl]-3-(4-phenoxyphenyl)-6H-pyrrolo[2,3-d]pyridazin-7-one] | 10 to 1000
C=CC(=O)N1CC[C@@H](n2cc(-c3ccc(Oc4ccccc4F)cc3)c3c(N)n[nH]c(=O)c32)C1 [Example 106, (R)-1-(1-acryloylpyrrolidin-3-yl)-4-amino-3-(4-(2-fluorophenoxy)phenyl)-1H-pyrrolo[2,3-d]pyridazin-7(6H)-one] | ≤ 10
C=CC(=O)N1CCCC(n2cc(-c3ccc(Oc4ccccc4F)cc3)c3c(N)n[nH]c(=O)c32)C1 (centres unmarked) [Example 55, 1-(1-acryloylpiperidin-3-yl)-4-amino-3-(4-(2-fluorophenoxy)phenyl)-1H-pyrrolo[2,3-d]pyridazin-7(6H)-one] | ≤ 10
CN(C)CC#CC(=O)N1CC[C@@H](n2cc(-c3ccc(Oc4ccccc4F)cc3)c3c(N)n[nH]c(=O)c32)C1 [Example 99, (R)-4-amino-1-(1-(4-(dimethylamino)but-2-ynoyl)pyrrolidin-3-yl)-3-(4-(2-fluorophenoxy)phenyl)-1H-pyrrolo[2,3-d]pyridazin-7(6H)-one] | 10 to 1000
C=CC(=O)N1CC(n2cc(-c3ccc(Oc4ccccc4)cc3)c3c(N)n[nH]c(=O)c32)C1 [Example 5, 4-amino-3-(4-phenoxyphenyl)-1-(1-prop-2-enoylazetidin-3-yl)-6H-pyrrolo[2,3-d]pyridazin-7-one] | 10 to 1000
CN(C)C/C=C/C(=O)N1CCCC(n2cc(-c3ccc(Oc4ccc(Cl)cc4)cc3)c3c(N)n[nH]c(=O)c32)C1 (centres unmarked) [Example 65, 4-amino-3-[4-(4-chlorophenoxy)phenyl]-1-[1-[(E)-4-(dimethylamino)but-2-enoyl]-3-piperidyl]-6H-pyrrolo[2,3-d]pyridazin-7-one] | 10 to 1000
C=CC(=O)N1CCC[C@H]1Cn1cc(-c2ccc(Oc3ccccc3)cc2)c2c(N)n[nH]c(=O)c21 [Example 6, 4-amino-3-(4-phenoxyphenyl)-1-[[(2S)-1-prop-2-enoylpyrrolidin-2-yl]methyl]-6H-pyrrolo[2,3-d]pyridazin-7-one] | ≤ 10
C=CC(=O)N1C[C@H](n2cc(-c3ccc(Oc4ccccc4)cc3)c3c(N)n[nH]c(=O)c32)CC(F)(F)C1 [Example 14, (R)-1-(1-acryloyl-5,5-difluoropiperidin-3-yl)-4-amino-3-(4-phenoxyphenyl)-1H-pyrrolo[2,3-d]pyridazin-7(6H)-one] | ≤ 10
C=CC(=O)Nc1ccc(-n2cc(-c3ccc(Oc4ccccc4)cc3)c3c(N)n[nH]c(=O)c32)cc1 [Example 90, N-(4-(4-amino-7-oxo-3-(4-phenoxyphenyl)-6,7-dihydro-1H-pyrrolo[2,3-d]pyridazin-1-yl)phenyl)acrylamide] | ≤ 10
N#CN1CC[C@@H](n2cc(-c3ccc(Oc4ccccc4)cc3)c3c(N)n[nH]c(=O)c32)C1 [Example 107, (R)-3-(4-amino-7-oxo-3-(4-phenoxyphenyl)-6,7-dihydro-1H-pyrrolo[2,3-d]pyridazin-1-yl)pyrrolidine-1-carbonitrile] | 1000 to 100000
C=CC(=O)N1CCCC(n2cc(-c3ccc(Oc4cccc(F)c4)cc3)c3c(N)n[nH]c(=O)c32)C1 (centres unmarked) [Example 62, 1-(1-acryloylpiperidin-3-yl)-4-amino-3-(4-(3-fluorophenoxy)phenyl)-1H-pyrrolo[2,3-d]pyridazin-7(6H)-one] | ≤ 10
C=CC(=O)N1CCC[C@@H](n2cc(-c3ccc(Oc4ccccc4)cc3)c3c(N)n[nH]c(=O)c32)C1 [Example 1, (R)-1-(1-acryloylpiperidin-3-yl)-4-amino-3-(4-phenoxyphenyl)-1H-pyrrolo[2,3-d]pyridazin-7(6H)-one] | ≤ 10
CN(C)C/C=C/C(=O)N1CCC[C@@H](n2cc(-c3ccc(Oc4ccccc4)cc3)c3c(N)n[nH]c(=O)c32)C1 [Example 26, 4-amino-1-[(3R)-1-[(E)-4-(dimethylamino)but-2-enoyl]-3-piperidyl]-3-(4-phenoxyphenyl)-6H-pyrrolo[2,3-d]pyridazin-7-one] | ≤ 10
N#CCC(=O)N1CCC[C@@H](n2cc(-c3ccc(Oc4ccccc4)cc3)c3c(N)n[nH]c(=O)c32)C1 [Example 24, 3-[(3R)-3-[4-amino-7-oxo-3-(4-phenoxyphenyl)-6H-pyrrolo[2,3-d]pyridazin-1-yl]-1-piperidyl]-3-oxo-propanenitrile] | 10 to 1000
CC#CC(=O)N1CC[C@@H](n2cc(-c3ccc(Oc4ccccc4)cc3)c3c(N)n[nH]c(=O)c32)C1 [Example 97, (R)-4-amino-1-(1-(but-2-ynoyl)pyrrolidin-3-yl)-3-(4-phenoxyphenyl)-1H-pyrrolo[2,3-d]pyridazin-7(6H)-one] | ≤ 10
N#CN1CCC[C@@H](n2cc(-c3ccc(Oc4ccccc4)cc3)c3c(N)n[nH]c(=O)c32)C1 [Example 20, (R)-3-(4-amino-7-oxo-3-(4-phenoxyphenyl)-6,7-dihydro-1H-pyrrolo[2,3-d]pyridazin-1-yl)piperidine-1-carbonitrile] | ≤ 10
CCN(C/C=C/C(=O)N1CCC[C@@H](n2cc(-c3ccc(Oc4ccccc4)cc3)c3c(N)n[nH]c(=O)c32)C1)C1CC1 [Example 30, 4-amino-1-[(3R)-1-[(E)-4-[cyclopropyl(ethyl)amino]but-2-enoyl]-3-piperidyl]-3-(4-phenoxyphenyl)-6H-pyrrolo[2,3-d]pyridazin-7-one] | 10 to 1000
CN(C)C/C=C/C(=O)N1CC(n2cc(-c3ccc(Oc4ccccc4)cc3)c3c(N)n[nH]c(=O)c32)C1 [Example 40, 4-amino-1-[1-[(E)-4-(dimethylamino)but-2-enoyl]azetidin-3-yl]-3-(4-phenoxyphenyl)-6H-pyrrolo[2,3-d]pyridazin-7-one] | 10 to 1000
C=CC(=O)N[C@H]1CC[C@H](n2cc(-c3ccc(Oc4ccccc4F)cc3)c3c(N)n[nH]c(=O)c32)CC1 [Example 105, N-((1r,4r)-4-(4-amino-3-(4-(2-fluorophenoxy)phenyl)-7-oxo-6,7-dihydro-1H-pyrrolo[2,3-d]pyridazin-1-yl)cyclohexyl)acrylamide] | 10 to 1000
CN(C)C/C=C/C(=O)N1CCC(Cn2cc(-c3ccc(Oc4ccccc4)cc3)c3c(N)n[nH]c(=O)c32)C1 (centres unmarked) [Example 43, 4-amino-1-[[1-[(E)-4-(dimethylamino)but-2-enoyl]pyrrolidin-3-yl]methyl]-3-(4-phenoxyphenyl)-6H-pyrrolo[2,3-d]pyridazin-7-one] | 10 to 1000
C=CC(=O)N1CCC[C@@H](n2cc(-c3ccc(Oc4ccccc4)c(F)c3)c3c(N)n[nH]c(=O)c32)C1 [Example 74, (R)-1-(1-acryloylpiperidin-3-yl)-4-amino-3-(3-fluoro-4-phenoxyphenyl)-1H-pyrrolo[2,3-d]pyridazin-7(6H)-one] | ≤ 10
